From ChEMBL document CHEMBL4354878, “Structure-Based Bioisosterism Yields HIV-1 NNRTIs with Improved Drug-Resistance Profiles and Favorable Pharmacokinetic Properties” (J Med Chem, 2020) come the findings set out here.

pEC50, pIC50: −log10 of the molar value.

The test system of series [1] is Human immunodeficiency virus 1. In words: Antiviral activity against HIV1 3B infected in human MT4 cells grown under 30 passages in presence of (E)-4-((4-((4-(4-(2-Cyanovinyl)-2,6-dimethylphenoxy)thieno[2,3- d]pyrimidin-2-yl)amino)piperidin-1-yl)methyl)benzenesulfonamide assessed as protection against virus-induced cytopathic effect incubated for 5 days by MTT assay. Type of series: functional, organism-based. The following applies: Human immunodeficiency virus 1, 3B, MT4, 120 h.

Series [2] has as its system Human immunodeficiency virus 1. In words: Antiviral activity against HIV1 3B infected in human MT4 cells grown under 30 passages in presence of 4-[[4-[[4-[4-[2-cyanovinyl]-2,6-dimethylphenoxy]thieno[3,2-d]pyrimidin-2-yl]amino]-1-piperidyl]methyl]benzenesulfonamide assessed as protection against virus-induced cytopathic effect incubated for 5 days by MTT assay. To be noted: Human immunodeficiency virus 1, 3B, MT4, 120 h. In kind it is functional, organism-based. (In general: Cytopathic effects are the visible damage that an infection or toxin causes in cultured cells.)

For series [3], the system named is Human immunodeficiency virus 1. The series is described as follows: Antiviral activity against HIV1 3B infected in human MT4 cells grown under 30 passages in absence of test compound assessed as protection against virus-induced cytopathic effect incubated for 5 days by MTT assay. In kind it is functional, organism-based. The following applies: Human immunodeficiency virus 1, 3B, MT4, 120 h.

The test system of series [4] is Human immunodeficiency virus 1. In words: Antiviral activity against HIV1 expressing RT Y188L mutant infected in human MT4 cells assessed as protection against virus-induced cytopathic effect incubated for 5 days by MTT assay. Type of series: functional, organism-based. The following applies: Human immunodeficiency virus 1, MT4, 120 h.
Series [5] relates to Human immunodeficiency virus 1. The series is described as follows: Antiviral activity against HIV1 expressing RT Y181C mutant infected in human MT4 cells assessed as protection against virus-induced cytopathic effect incubated for 5 days by MTT assay. In kind it is functional, organism-based. The following applies: Human immunodeficiency virus 1, MT4, 120 h.
Series [6] can be described thus: Toxicity in Kunming mouse assessed as induction of toxic symptoms at 2000 mg/kg, ig measured 2 hrs post dose and then measured every 48 hrs for 14 days. In kind it is organism-based. The following applies: in vivo, po.
The test system of series [7] is Human immunodeficiency virus 1. Type of series: functional, organism-based. The following applies: Human immunodeficiency virus 1, MT4, 120 h.
Series [8] concerns Human immunodeficiency virus 1. The series is described as follows: Antiviral activity against HIV1 expressing RT E138K mutant infected in human MT4 cells assessed as protection against virus-induced cytopathic effect incubated for 5 days by MTT assay. Type of series: functional, organism-based. To be noted: Human immunodeficiency virus 1, MT4, 120 h.
The target in series [9] is Human immunodeficiency virus type 1 reverse transcriptase (Human immunodeficiency virus 1, UniProt Q72547, K103N). In words: Inhibition of HIV1 RT K103N mutant in presence of reconstituted template and viral nucleotides [digoxigenin (DIG)-dUTP, biotin-dUTP and dTTP] incubated for 1 hr by ELISA method. (In an ELISA, binding on a coated surface is turned into a signal by an enzyme label.)

Series [10] deals with Human immunodeficiency virus type 1 reverse transcriptase (Human immunodeficiency virus 1, UniProt Q72547, Y181C). In words: Inhibition of HIV1 RT Y181C mutant in presence of reconstituted template and viral nucleotides [digoxigenin (DIG)-dUTP, biotin-dUTP and dTTP] incubated for 1 hr by ELISA method.
The nature of series [11]: Toxicity in Kunming mouse assessed as induction of body weight changes at 2000 mg/kg, ig measured 2 hrs post dose and then measured every 48 hrs for 14 days. Type of series: organism-based. The following applies: in vivo, po.
Series [12] relates to Human immunodeficiency virus 1. The series is described as follows: Antiviral activity against HIV1 3B infected in human MT4 cells assessed as protection against virus-induced cytopathic effect incubated for 5 days by MTT assay. The following applies: Human immunodeficiency virus 1, 3B, MT4, 120 h. In kind it is functional, organism-based.
The nature of series [13]: Toxicity in Kunming mouse assessed as induction of abnormal behaviors at 2000 mg/kg, ig measured 2 hrs post dose and then measured every 48 hrs for 14 days. In kind it is organism-based. The following applies: in vivo, po.
The subject of series [14] is Human immunodeficiency virus 1. The series is described as follows: Antiviral activity against HIV1 expressing RT L100I mutant infected in human MT4 cells assessed as protection against virus-induced cytopathic effect incubated for 5 days by MTT assay. The following applies: Human immunodeficiency virus 1, MT4, 120 h. Type of series: functional, organism-based.
Series [15] deals with Human immunodeficiency virus 1. In words: Antiviral activity against HIV1 RES056 infected in human MT4 cells assessed as protection against virus-induced cytopathic effect incubated for 5 days by MTT assay. In kind it is functional, organism-based. The following applies: Human immunodeficiency virus 1, RES056, MT4, 120 h.
The test system of series [16] is Human immunodeficiency virus 1. The series is described as follows: Antiviral activity against HIV1 3B infected in human MT4 cells grown under 30 passages in presence of 4-[[4-[[4-(4-cyano-2,6-dimethylphenoxy)thieno[3,2-d]pyrimidin-2-yl]amino]-1-piperidyl]methyl]benzenesulfonamide assessed as protection against virus-induced cytopathic effect incubated for 5 days by MTT assay. To be noted: Human immunodeficiency virus 1, 3B, MT4, 120 h. In kind it is functional, organism-based.

Series [17] concerns the target Human immunodeficiency virus type 1 reverse transcriptase (Human immunodeficiency virus 1, UniProt Q72547, Y188L). In words: Inhibition of HIV1 RT Y188L mutant in presence of reconstituted template and viral nucleotides [digoxigenin (DIG)-dUTP, biotin-dUTP and dTTP] incubated for 1 hr by ELISA method.
Series [18] concerns the target Human immunodeficiency virus type 1 reverse transcriptase (Human immunodeficiency virus 1, UniProt Q72547). In words: Inhibition of HIV1 RT in presence of reconstituted template and viral nucleotides [digoxigenin (DIG)-dUTP, biotin-dUTP and dTTP] incubated for 1 hr by ELISA method.
The subject of series [19] is Human immunodeficiency virus 1. In words: Antiviral activity against HIV1 expressing RT K103N mutant infected in human MT4 cells assessed as protection against virus-induced cytopathic effect incubated for 5 days by MTT assay. Type of series: functional, organism-based. To be noted: Human immunodeficiency virus 1, MT4, 120 h.
For series [20], the target named is Human immunodeficiency virus type 1 reverse transcriptase (Human immunodeficiency virus 1, UniProt Q72547, K103N/Y181C). The series is described as follows: Inhibition of HIV1 RT K103N/Y181C mutant in presence of reconstituted template and viral nucleotides [digoxigenin (DIG)-dUTP, biotin-dUTP and dTTP] incubated for 1 hr by ELISA method.
In series [21] the target is Human immunodeficiency virus type 1 reverse transcriptase (Human immunodeficiency virus 1, UniProt Q72547, E138K). The series is described as follows: Inhibition of HIV1 RT E138K mutant in presence of reconstituted template and viral nucleotides [digoxigenin (DIG)-dUTP, biotin-dUTP and dTTP] incubated for 1 hr by ELISA method.
Series [22] in a line: Toxicity in Kunming mouse assessed as induction of mortality at 2000 mg/kg, ig measured 2 hrs post dose and then measured every 48 hrs for 14 days. Type of series: organism-based. To be noted: in vivo, po.

The pEC50 is the EC50 on a negative log10 scale, so that one unit is a factor of ten. As a reminder, the pIC50 is the IC50 on a negative log10 scale, so that one unit is a factor of ten. As for `Cc1cc(/C=C/C#N)cc(C)c1Oc1nc(NC2CCN(Cc3ccc(S(N)(=O)=O)cc3)CC2)nc2sccc12`, the pEC50 in [1] was 5.44; in series [2], 6.06; in series [3] it was 8.39; in series [4], 8.12; in series [5] it was 8.18; in [7], 8.32. Besides, the pEC50 in series [8] is 8.17; in series [12], 8.49; in [14] it was 8.69; in [15] it was 8.19; in [16], 5.75; in series [19], 8.63. Also, the Activity entry in series [6], in series [11], in [13] and in [22] was “Non-Toxic” in each case. Further, the pIC50 was 6.65 in [9]; 6.85 in series [10]; 6.34 in series [17]; 6.94 in [18]; 6.92 in [20]; 6.43 in series [21].
